# Measured values as given in patent US20110313672A1, “CELLULAR ANTIOXIDANT ACTIVITY (CAA) ASSAY” (CORNELL UNIVERSITY, priority 2007, published 2011).
# What was measured:
# in vitro = settings: human
# Experimental: (§1) Briefly, HepG2 cells are seeded at 4×10^4/well on a 96-well plate in 100 μL growth medium and incubated for 24 h at 37° C. The medium is removed and the cells are washed with PBS. Treatments of fruit extracts or antioxidant compounds in 100 μL treatment medium (Williams' Medium E supplemented with 2 mM L-glutamine and 10 mM Hepes) are applied to the cells and the plates are incubated at 37° C. for 24 h. The treatment medium is removed and the cells are washed with PBS. A volume of 50 μL/well methylene blue staining solution (98% HBSS, 0.67% glutaraldehyde, 0.6% methylene blue) is applied to each well and the plate is incubated at 37° C. for 1 h.
# (§2) Excess dye is removed by immersing the plate in fresh deionized water until the water appears clear. The excess water should be tapped out of the wells and the plate allowed to air-dry briefly before addition of 100 μL elution solution (49% PBS, 50% ethanol, 1% acetic acid) to each well. The microplate is then placed on a bench-top shaker for 20 minutes to allow uniform elution. The absorbance is read at 570 nm with blank subtraction using, for example a MRX II DYNEX spectrophotometer (DYNEX Inc., Chantilly, Va.). Concentrations of pure compounds or fruit extracts that decrease the absorbance by more than 10% when compared to the control are considered to be cytotoxic.
# (§3) Cytotoxicity was measured using the method of Oliver et al. (31) with modifications by our laboratory (32). […] The medium was removed and the cells were washed with PBS. Treatments of fruit extracts or antioxidant compounds in 100 μL treatment medium (Williams' Medium E supplemented with 2 mM L-glutamine and 10 mM Hepes) were applied to the cells and the plates were incubated at 37° C. for 24 h. The treatment medium was removed and the cells were washed with PBS. A volume of 50 μL/well methylene blue staining solution (98% HBSS, 0.67% glutaraldehyde, 0.6% methylene blue) was applied to each well and the plate was incubated at 37° C. for 1 h. The dye was removed and the plate was immersed in fresh deionized water three times, or until the water was clear. The water was tapped out of the wells and the plate was allowed to air-dry briefly before 100 μL elution solution (49% PBS, 50% ethanol, 1% acetic acid) was added to each well. The microplate was placed on a bench-top shaker for 20 minutes to allow uniform elution. The absorbance was read at 570 nm with blank subtraction using the MRX II DYNEX spectrophotometer (DYNEX Inc., Chantilly, Va.). Concentrations of pure compounds or fruit extracts that decreased the absorbance by more than 10% when compared to the control were considered to be cytotoxic.
# (§4) The median cytotoxic concentration (CC50) was calculated for each fruit.
# (§5) Briefly, HepG2 cells were seeded at 4×10^4/well on a 96-well plate in 100 μL growth medium and incubated for 24 h at 37° C. The medium was removed, and the cells were washed with PBS. Flavonoids in 100 μL growth medium were applied to the cells, and the plates were incubated at 37° C. for 24 h. The medium was removed, and the cells were washed with PBS before a volume of 50 μL/well methylene blue staining solution (98% HBSS, 0.67% glutaraldehyde, 0.6% methylene blue) was applied to each well, and the plate was incubated at 37° C. for 1 h. The dye was removed, and the plate was immersed in fresh deionized water until the water was clear. The water was tapped out of the wells, and the plate was allowed to air-dry briefly before 100 μL of elution solution (49% PBS, 50% ethanol, 1% acetic acid) was added to each well. The microplate was placed on a benchtop shaker for 20 min to allow uniform
# (§6) elution. The absorbance was read at 570 nm with blank subtraction using the MRX II Dynex spectrophotometer (Dynex Inc., Chantilly, Va.). The median cytotoxic concentration (CC50) was calculated for each flavonoid.
# HepG2 cells = test: in vitro; settings: for CC50: read-out: cytotoxicity CC50, Example 3, median cytotoxic concentration
# Experimental: as §1, §2, §3, §4, §5, §6
# [1] = Example 1, dose at which the cell number is reduced by more than 10% after 24 h treatment
Compound,CC50 at 24 h (in vitro),"Cytotoxicity (cytotoxic concentration) (HepG2 cells; human, 24 h)",CC50 at 24 h (in vitro; HepG2 cells),also measured
"O=c1c(O)c(-c2ccc(O)cc2)oc2cc(O)cc(O)c12 [Kaempferol, kaempferol]",> 100 µM,30 µM,,
O=C1C[C@@H](c2ccc(O)cc2)Oc2cc(O)cc(O)c21 [naringenin],,,> 200 µM,
O=c1c(O)c(-c2ccc(O)cc2O)oc2cc(O)cc(O)c12 [morin],,,> 200 µM,
O=c1c(-c2ccc(O)cc2)coc2cc(O)cc(O)c12 [genistein],> 100 µM,,,
"O=C1c2c(O)cc(O)cc2O[C@H](c2ccc(O)c(O)c2)[C@H]1O [Taxifolin, taxifolin]",,,> 200 µM,Cytotoxicity (cytotoxic concentration) (HepG2 cells; [1]): 150 µM
(−)-epigallocatechin gallate [EGCG],,,,Cytotoxicity (cytotoxic concentration) (HepG2 cells; [1]): >100 µM; CC50 (HepG2 cells; 24 h): > 100 µM
"Oc1cc(O)c2c(c1)O[C@H](c1cc(O)c(O)c(O)c1)[C@H](O)C2 [EGC, (−)-epigallocatechin]",> 200 µM,,,
"O=C(O[C@@H]1Cc2c(O)cc(O)cc2O[C@@H]1c1ccc(O)c(O)c1)c1cc(O)c(O)c(O)c1 [ECG, (−)-epicatechin gallate]",> 200 µM,,,
O=c1c(O)c(-c2ccccc2)oc2cc(O)cc(O)c12 [galangin],,,> 80 µM,
"O=c1c(O)c(-c2ccc(O)c(O)c2)oc2cc(O)cc(O)c12 [Quercetin, quercetin]",> 100 µM,>20 µM,,
"O=c1c(O[C@@H]2O[C@H](CO)[C@@H](O)[C@H](O)[C@H]2O)c(-c2ccc(O)c(O)c2)oc2cc(O)cc(O)c12 [Q-3-G, quercetin-3-β-D-glucoside]",,,,CC50 (HepG2 cells; 24 h): > 200 µM
"O=c1c(O)c(-c2cc(O)c(O)c(O)c2)oc2cc(O)cc(O)c12 [Myricetin, myricetin]",> 200 µM,200 µM,,
"O=c1cc(-c2ccc(O)c(O)c2)oc2cc(O)cc(O)c12 [Luteolin, luteolin]",> 80 µM,20 µM,,
